Assay: xn = mol fraction of the nth substance listed
Details: 101 kPa, Liquid; for mass density: Vibrating tube method

NCCCO [3-amino-1-propanol] + CC(C)CO
Details | mass density, 293.15 K [kg/m3] | mass density, 303.15 K [kg/m3] | mass density, 313.15 K [kg/m3] | mass density, 323.15 K [kg/m3] | mass density, 333.15 K [kg/m3] | viscosity, 293.15 K [mPa·s] | viscosity, 303.15 K [mPa·s] | viscosity, 313.15 K [mPa·s] | viscosity, 323.15 K [mPa·s] | viscosity, 333.15 K [mPa·s]
x1 = 0.1037 | 819.8 | 811.99 | 804.06 | 795.93 | 787.58 | 5.051 | 3.521 | 2.443 | 1.637 | 1.025
x1 = 0.2007 | 837.1 | 829.27 | 821.32 | 813.22 | 804.93 | 6.346 | 4.093 | 3.059 | 2.113 | 1.408
x1 = 0.3006 | 854.9 | 847.02 | 839.04 | 830.95 | 822.7 | 8.282 | 5.473 | 3.688 | 2.534 | 1.699
x1 = 0.4002 | 873.2 | 865.25 | 857.25 | 849.16 | 840.94 | 10.89 | 6.995 | 4.658 | 3.177 | 2.155
x1 = 0.501 | 891.9 | 883.89 | 875.86 | 867.78 | 859.58 | 13.95 | 8.794 | 5.767 | 3.903 | 2.693
x1 = 0.6007 | 910.4 | 902.41 | 894.47 | 886.34 | 878.16 | 17.71 | 10.85 | 7.048 | 4.73 | 3.251
x1 = 0.7008 | 929.5 | 921.49 | 913.45 | 905.35 | 897.17 | 21.85 | 13.33 | 8.496 | 5.666 | 3.88
x1 = 0.8005 | 948.6 | 940.49 | 932.36 | 924.27 | 916.24 | 27.18 | 16.12 | 10.09 | 6.695 | 4.573
x1 = 0.9005 | – | 960.24 | 952.19 | 944.09 | 935.93 | 33.2 | 19.47 | 12.19 | 8.029 | 5.424
x1 = 1 | 987.55 | 979.53 | 971.47 | 963.37 | 955.22 | 40.45 | 23.98 | 15.31 | 10.22 | 6.961

NCCCO [3-amino-1-propanol] + CC(C)O
Details | mass density, 293.15 K [kg/m3] | mass density, 303.15 K [kg/m3] | mass density, 313.15 K [kg/m3] | mass density, 323.15 K [kg/m3] | mass density, 333.15 K [kg/m3] | viscosity, 293.15 K [mPa·s] | viscosity, 303.15 K [mPa·s] | viscosity, 313.15 K [mPa·s] | viscosity, 323.15 K [mPa·s] | viscosity, 333.15 K [mPa·s]
x1 = 0.1006 | 807.84 | 799.47 | 790.86 | 781.97 | 772.74 | 3.076 | 2.069 | 1.334 | 0.761 | –
x1 = 0.2004 | 830.07 | 821.75 | 813.25 | 804.55 | 795.57 | 4.223 | 2.918 | 1.964 | 1.278 | 0.734
x1 = 0.3 | 851.78 | 843.5 | 835.07 | 826.48 | 817.69 | 5.489 | 3.955 | 2.745 | 1.879 | 1.203
x1 = 0.4007 | 873.12 | 864.86 | 856.49 | 848 | 839.34 | 7.957 | 5.363 | 3.704 | 2.559 | 1.75
x1 = 0.5003 | 894.23 | 885.99 | 877.67 | 869.25 | 860.69 | 11.01 | 7.213 | 4.931 | 3.402 | 2.367
x1 = 0.6 | 914.21 | 906 | 897.72 | 889.36 | 880.9 | 14.58 | 9.397 | 6.266 | 4.356 | 3.063
x1 = 0.7002 | 933.43 | 925.29 | 916.99 | 908.67 | 900.35 | 19.25 | 12.09 | 8.058 | 5.497 | 3.88
x1 = 0.8003 | 952.3 | 944.26 | 935.98 | 927.76 | 919.55 | 25.27 | 15.62 | 10.17 | 6.895 | 4.842
x1 = 0.9001 | 970.56 | 962.49 | 954.37 | 946.21 | 937.99 | 32.08 | 19.5 | 12.46 | 8.337 | 5.894
x1 = 1 | 987.65 | 979.65 | 971.61 | 963.52 | 955.38 | 40.46 | 23.98 | 15.31 | 10.22 | 6.962
